Results from patent US20250040545A1, “USE OF SYNERGISTIC COMPOSITIONS BASED ON ZOXAMIDE AND CYFLUFENAMID AS FUNGICIDES IN THE AGRONOMIC FIELD” (Gowan Crop Protection Limited, priority 2023, published 2025).
Values joined by “and” are separate entries in the source; they are usually repeats but may differ in a detail not shown here. Identical values can stand only once.

What was measured:
Type in all cases: cell-based
Conditions in all cases: single active ingredient
[1] = tested on: Botrytis cinerea; experiment: In vitro antifungal synergy assay, growth inhibition in 96-well plates (absorbance), Botrytis cinerea
Description: (§1) Compositions consisting of the active ingredients Zoxamide (A) and Cyflufenamid (B) in different weight ratios were tested to evaluate their in vitro synergistic antifungal activity against the following phytopathogenic fungi: Botrytis cinerea, Sclerotinia minor and Venturia inaequalis by comparing them with the single active ingredients (A) and (B).
(§2) The strains in pure culture are kept and stored at 4° C. in a refrigerator on potato dextrose agar (PDA) nutrient substrates. The fungal inoculum was prepared (which, depending on the species of the pathogen, could be a suspension of conidia or a mycelial homogenate) for carrying out the synergy assays.
For the in vitro sporulating strain, i.e. Botrytis cinerea, the conidic suspension was prepared starting from a culture grown on PDA after 4-5 days of incubation in a thermostat at 24° C. to stimulate its sporulation. The conidia were collected in 1 mL of double-concentration PDB and counted under a microscope with a counting chamber to obtain a final inoculum of 4×10^4 conidia/mL.
(§3) In the compositions tested, the weight ratios of Zoxamide (A) with respect to Cyflufenamid (B) range from 500:1 to 1:100. For both molecules tested, a stock solution in dimethyl sulfoxide (DMSO) at 160,000 mg/l was prepared which was then serially diluted in sterile demineralized water to obtain the solutions to be tested at concentrations double with respect to the final doses. More specifically, the compositions of the two fungicide molecules (A) and (B) were tested following a checkerboard matrix in order to have, in this way, all possible combinations of the two fungicides within the weight ratios described above.
(§4) Synergy assays were performed in 96-well plates: 50 μl of inoculum were mixed with 50 μl of solution of the compositions consisting of the two active molecules (A) and (B) in each well using the Eppendorf Multipette® System E3 serial dispenser.
(§5) Three wells were used as replicates for each concentration/active ingredient composition.
(§6) All pathogen strains were grown in untreated control wells containing 50 μl of fungal suspension and 50 μl of sterile demineralized water. The inoculated multi-well plates are incubated at 22° C. for 72 hours or 96 or 120 depending on the type of pathogen.
(§7) The sensitivity to the molecules was evaluated as growth inhibition of the fungus and measured in terms of absorbance immediately before and after the incubation period.
(§8) The absorbance was measured for each well using the Infinite® F50 Absorbance Reader (Tecan Group Ltd) spectrophotometer at 405 nm (for mycelial inoculums) and at 492 nm (for conidic inoculums).
(§9) For each strain, the percentage of growth inhibition (GIP) caused by each of the active-ingredient concentrations was calculated using the following formula: […]
(§10) wherein At72-120 and At0 are respectively the absorbances of the treated well and of the untreated control measured at the end and at the beginning of the incubation period. GIP data were used for calculating the potential synergistic effect of the compositions tested using the formula proposed by Colby (1967):
(§11) [formula] • wherein: • GIPt=GIP expected of the active molecule A and B tested at dose p for molecule • A and dose q for molecule B: • GIPa=GIP expected from the molecule A tested at dose p; • GIPb=GIP expected from the molecule B tested at dose q.
(§12) The synergistic effect of the two molecules is indicated when the effectiveness of the mixed combination of A+B […], is higher than the expected effectiveness calculated with the Colby equation (GIPa+b/GIPt>1), as described in literature in Colby, S. R. (1967): “Calculating synergistic and antagonistic responses of herbicide combinations”, Weeds, 15 (1), pages 20-22.

[2] = tested on: Sclerotinia minor; experiment: In vitro antifungal synergy assay, growth inhibition in 96-well plates (absorbance), Sclerotinia minor
Description: as §1, §2
(§13) For the strains not easily sporulating in vitro, i.e. Sclerotinia minor and Venturia inaequalis, six to eight pieces of mycelium, taken from actively growing cultures, are transferred into a grinding egg containing 6 ml of double-concentration potato dextrose broth (PDB). and some metal balls. The suspension is homogenized with a Pulverisette 23 mini-mill (Fritsch GmbH).
as §3, §4, §5, §6, §7, §8, §9, §10, §11, §12

[3] = tested on: Venturia inaequalis; experiment: In vitro antifungal synergy assay, growth inhibition in 96-well plates (absorbance), Venturia inaequalis
Description: as §1, §2, §13, §3, §4, §5, §6, §7, §8, §9, §10, §11, §12

Row | SMILES | Effect A, Effect B (GIP) ([1]; dose 0.1 mg/l) [%] | Effect A, Effect B (GIP) ([1]; dose 1 mg/l) [%] | Effect A, Effect B (GIP) ([1]; dose 5 mg/l) [%] | Effect A, Effect B (GIP) ([1]; dose 50 mg/l) [%] | Effect A, Effect B (GIP) ([1]; dose 100 mg/l) [%] | Effect A, Effect B (GIP) ([2]; dose 0.1 mg/l) [%] | Effect A, Effect B (GIP) ([2]; dose 1 mg/l) [%] | Effect A, Effect B (GIP) ([2]; dose 5 mg/l) [%] | Effect A, Effect B (GIP) ([2]; dose 10 mg/l) [%] | Effect A, Effect B (GIP) ([3]; dose 0.1 mg/l) [%] | Effect A, Effect B (GIP) ([3]; dose 1 mg/l) [%] | Effect A, Effect B (GIP) ([3]; dose 5 mg/l) [%] | Effect A, Effect B (GIP) ([3]; dose 10 mg/l) [%] | Effect A, Effect B (GIP) ([3]; dose 50 mg/l) | Effect A, Effect B (GIP) ([3]; dose 100 mg/l) | Effect A, Effect B (GIP) ([1]; dose 10 mg/l) [%] | Effect A, Effect B (GIP) ([2]; dose 50 mg/l) [%] | Effect A, Effect B (GIP) ([2]; dose 100 mg/l) [%]
1 | O=C(Cc1ccccc1)N/C(=N\OCC1CC1)c1c(C(F)(F)F)ccc(F)c1F [Cyflufenamid] | 1.7 | 4.3 | 10.6 | 49.4 | 60.2 | 3.7 | 10.2 | 17.8 | 23.4 | 1.2 | 5.5 | 10.3 | 12.7 | 15.2% and 12.7% | 18.3% and 18.0% | – | – | –
2 | CCC(C)(NC(=O)c1cc(Cl)c(C)c(Cl)c1)C(=O)CCl (centres unmarked) [Zoxamide] | – | 5.6 | – | 47.3 | 56.9 | 2.5 | 29.1 | – | 37.6 | – | 78.0 | 78.8 | 80.0 | 80.1% | 84.5% and 84.0% | 31.2 | 58.2 | 70.3
